Experiment [1] deals with colony-forming HSPCs. Put plainly: Mobilization of colony-forming HSPCs into the peripheral blood of mice (CFU count of PBMCs in methylcellulose culture). It counts as in vivo, C57BL/6 mice. The settings on record: 50 mg/kg/day oral gavage for 4 days, AMD3100 s.c. one hour before analyses, no G-CSF; trends; FIGS. 5A, 5B.
The subject of experiment [2] is colony-forming HSPCs. The settings on record: AMD3100 s.c. injection; cited from earlier work.
Experiment [3] has as its system colony-forming HSPCs. Put plainly: Mobilization of colony-forming HSPCs into the peripheral blood of mice (CFU count of PBMCs in methylcellulose culture). It counts as in vivo, C57BL/6 mice. The method, then: To test whether co-administration of 27HC with G-CSF plus another clinically-used HSC mobilizing agent, AMD3100 (a CXCR4 chemokine receptor antagonist that is also known as plerixafor), further enhances HSC mobilization. Two-month-old C57BL/6 mice were treated with a single agent alone, a combination of two agents (27HC+AMD3100, or G-CSF+AMD3100), all three agents combined, or vehicle alone (2-hydroxypropyl-β-cyclodextrin for 27HC, PBS for G-CSF, and PBS for AMD3100).
(§1) Mice were treated with 27HC (10 mg/kg/day) and/or G-CSF (250 μg/kg/day) for 4 days and then treated with AMD3100 (5 mg/kg) one hour before the peripheral blood collection (FIG. 1). Peripheral blood mononuclear cells (PBMCs) were isolated by density gradient centrifugation, and were seeded in the methylcellulose culture medium. Colonies were counted after 12 days of culture.
(§2) This experiment was performed as described in Example 1, except, clotrimazole (50 mg/kg/day) was used instead of 27HC.

Experiment [4] has as its system colony-forming HSPCs. Put plainly: Mobilization of colony-forming HSPCs into the peripheral blood of sickle cell model mice (CFU count). It counts as in vivo, sickle cell model mice (Townes model mice). The settings on record: clotrimazole 50 mg/kg/day i.p. for 4 days, AMD3100 s.c. one hour before analyses, FIGS. 4A, 4B. On the procedure:
as §1, §2

Experiment [5] has as its system HSCs. The settings on record: recently demonstrated; cited from earlier work.
Experiment [6] deals with HSCs. Put plainly: HSC proliferation and mobilization in mice treated with ERα ligands. It counts as in vivo. Conditions: E2: male mice and non-pregnant females. An excerpt:
However, the mechanism by which E2 and 27HC, two endogenous ERα ligands, differentially regulate HSCs is unknown. […] E2 levels increase during pregnancy, when extramedullary hematopoiesis (EMH) is induced to increase the production of red blood cells. In addition to increased HSC proliferation, EMH during pregnancy requires increased HSC mobilization, which the present inventors found to also depend on ERα in HSCs. […] Thus, through their differential effects on HSC behavior in vivo—E2 and 27HC act in concert to promote hematopoiesis during pregnancy.

The structures appear in SMILES notation. Entries after “also recorded” stand apart in the source; their conditions may differ.

Turning to `CC(C)(C(=O)c1cccnc1)c1cccnc1` [metyrapone], the “CFUs (including CFU-gmEM) in the peripheral blood, two-agent combination with AMD3100 versus AMD3100 single agent” value in the experiment on colony-forming HSPCs [1] is recorded as “generated more CFUs, including CFU-gmEM, than the single-agent AMD3100 treatment”.

`c1cc(CN2CCCNCCNCCCNCC2)ccc1CN1CCCNCCNCCCNCC1` [AMD3100]: in the experiment on colony-forming HSPCs [2], the “Time of peak mobilization of HSCs after AMD3100 injection” value is reported as “one hour post administration”.

For the compound `C[C@@H](c1ncncc1F)[C@](O)(Cn1cncn1)c1ccc(F)cc1F` [voriconazole], the “CFUs (including CFU-gmEM) in the peripheral blood, two-agent combination with AMD3100 versus AMD3100 single agent” value with colony-forming HSPCs [1] is reported as “generated more CFUs, including CFU-gmEM, than the single-agent AMD3100 treatment”.

Turning to `Clc1ccccc1C(c1ccccc1)(c1ccccc1)n1ccnc1` [clotrimazole], in the experiment on colony-forming HSPCs [3] (clotrimazole 50 mg/kg/day i.p. for 4 days, G-CSF s.c. for 4 days, AMD3100 one hour before analyses, FIGS. 3C, 3D), the “CFUs (including CFU-gmEM) in the peripheral blood, three-agent combination with G-CSF and AMD3100 versus G-CSF and AMD3100” value is “more CFUs, including CFU-gmEM, than the two-agent combination treatment with G-CSF and AMD3100”. The “CFUs in the peripheral blood, two-agent combination with AMD3100 versus AMD3100 single agent” value in the experiment with colony-forming HSPCs [3] (clotrimazole 50 mg/kg/day i.p., AMD3100 s.c. one hour before analyses, FIGS. 3A, 3B) is given as “significantly more CFUs than the single-agent AMD3100 treatment”. Further, the “CFUs (including CFU-gmEM) in the peripheral blood, two-agent combination with AMD3100 versus AMD3100 single agent” value in the experiment with colony-forming HSPCs [1] is reported as “synergistic effects with the single-agent AMD3100 treatment”; in the experiment with colony-forming HSPCs [4], “significantly more CFUs, including CFU-gmEM, than the single-agent AMD3100 treatment”.

On to `C[C@]12CC[C@@H]3c4ccc(O)cc4CC[C@H]3[C@@H]1CC[C@@H]2O` [E2, 17β-estradiol], for which the “Effect of treatment of mice on HSC proliferation and mobilization” value in the experiment with HSCs [5] is given as “induces HSC proliferation but not mobilization”. In the experiment with HSCs [6], the “Effect of administration on HSC proliferation and mobilization (found by the present inventors)” value is on record as “induces HSC proliferation but not mobilization”.

In the case of `C[C@@H](CO)CCC[C@@H](C)[C@H]1CC[C@H]2[C@@H]3CC=C4C[C@@H](O)CC[C@]4(C)[C@H]3CC[C@]12C` [27HC, 27-hydroxycholesterol], the “CFUs (including CFU-gmEM) in the peripheral blood, three-agent combination with G-CSF and AMD3100 versus G-CSF and AMD3100” value in the experiment with colony-forming HSPCs [3] (27HC 10 mg/kg/day and G-CSF 250 μg/kg/day s.c. for 4 days, AMD3100 5 mg/kg one hour before collection, FIGS. 2C, 2D) was “significantly more CFUs, including CFU-gmEM, than the two-agent combination treatment with G-CSF and AMD3100; also recorded: mobilized more colony-forming HSPCs as compared to a single agent alone or a combination of two agents”. In addition, the “CFUs in the peripheral blood, two-agent combination with AMD3100 versus AMD3100 single agent” value with colony-forming HSPCs [3] (27HC 10 mg/kg/day s.c. for 4 days, AMD3100 5 mg/kg s.c. one hour before blood collection, FIGS. 2A, 2B) was “significantly more CFUs than the AMD3100 single-agent treatment; also recorded: mobilized colony-forming HSPCs significantly more than AMD3100 alone”. Also, in the experiment on colony-forming HSPCs [3] (FIG. 2), the “HSC mobilization on treating mice with 27HC” value is “promotes HSC mobilization”. The “Effect of treatment of mice on HSC proliferation and mobilization” value with HSCs [5] was “induces ERα-dependent HSC mobilization but not proliferation”. Moreover, the “Effect of administration on HSC proliferation and mobilization (found by the present inventors)” value with HSCs [6] is given as “induces HSC mobilization (but not proliferation)”.

These data come from US20240148710A1, “INHIBITORS OF CYTOCHROME P450 FAMILY 7 SUBFAMILY B MEMBER 1 (CYP7B1) FOR USE IN MOBILIZATION OF HEMATOPOIETIC STEM AND PROGENITOR CELLS” (priority 2022, published 2024).
